Experiment [1] has as its target T1, human CRF2a receptor (Homo sapiens, UniProt Q13324).
T1 construct: expressed in transfected cells; host or cells: TeloHEAC cells
T1 sequence (Q13324 1-411): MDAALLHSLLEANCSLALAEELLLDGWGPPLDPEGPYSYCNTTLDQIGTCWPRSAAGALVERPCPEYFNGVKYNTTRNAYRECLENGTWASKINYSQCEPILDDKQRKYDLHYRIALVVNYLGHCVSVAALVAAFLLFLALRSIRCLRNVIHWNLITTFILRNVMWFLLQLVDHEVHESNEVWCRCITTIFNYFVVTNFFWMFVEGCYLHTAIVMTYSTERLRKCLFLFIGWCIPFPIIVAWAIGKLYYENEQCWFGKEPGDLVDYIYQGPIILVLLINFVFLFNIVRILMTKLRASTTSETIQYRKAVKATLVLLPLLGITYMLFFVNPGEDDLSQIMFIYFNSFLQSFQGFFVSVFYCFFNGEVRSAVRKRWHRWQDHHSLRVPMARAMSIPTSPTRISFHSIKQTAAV
In words: Activity at human CRF2a receptor, cAMP functional assay in TeloHEAC cells. The format is cell-based. The following applies: TeloHEAC cells stably expressing human CRF2a receptor, relative to urocortin 2 (100 nM = 100%). An outline of the steps:
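TeloHEAC cells stably expressing human CRF2a (10000 cells/well) were treated with 16-point 1:2 compound dilutions in HBSS/20 mM HEPES with IBMX for 30 min at 37° C. cAMP was read by HTRF (665/620 nm ratio). EC50 was the concentration giving 50% activation, with 100 nM urocortin 2 set as 100%.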

In experiment [2] the target is T2, CFR1R receptor (Homo sapiens, UniProt P34998).
T2 construct: host or cells: CHO-K1 (clone 2)
T2 sequence (P34998 24-415): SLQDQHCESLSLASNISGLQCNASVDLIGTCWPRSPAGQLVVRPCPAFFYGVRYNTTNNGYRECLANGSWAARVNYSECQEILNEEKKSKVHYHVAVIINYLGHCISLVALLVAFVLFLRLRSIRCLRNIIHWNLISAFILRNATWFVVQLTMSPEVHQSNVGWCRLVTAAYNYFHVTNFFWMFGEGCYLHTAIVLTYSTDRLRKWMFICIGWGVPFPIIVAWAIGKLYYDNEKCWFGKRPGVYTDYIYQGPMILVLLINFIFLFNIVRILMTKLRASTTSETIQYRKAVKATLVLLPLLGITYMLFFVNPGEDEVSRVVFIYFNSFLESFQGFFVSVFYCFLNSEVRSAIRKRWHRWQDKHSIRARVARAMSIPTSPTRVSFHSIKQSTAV
In words: Activity at anti-target CFR1R receptor, cAMP assay in CRF1R-overexpression CHO-K1 cells. The format is cell-based. Conditions: 100% = Sauvagine at 100 nM; for EC50: cAMP. An outline of the steps:
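Grow clone 2 to near confluence at 37° C. under 5% CO2 in F12 (Hams) with 10% FBS and G418, harvest, and freeze in 10% DMSO. Thaw and plate at 4000 cells/well. Then proceed per the TeloHAEC method, normalising to Sauvagine 100 nM as maximum.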
Background: Cyclic AMP is a second messenger, typically raised through Gs and lowered through Gi signalling.

*1 amine or outer side, *2 acyl side, *3 side chain or, on linkers, in order; H or OH if unused. Where a SMILES comes first, the peptide text is derived from it. Side-chain parts run from the residue outwards. [ ]: non-standard residue; d: D form. The star is where a group is joined. C18 diacid = O=C(O)CCCCCCCCCCCCCCCCC(=O)*; C16 diacid = O=C(O)CCCCCCCCCCCCCCC(=O)*; γGlu = O=C(O)[C@H](CCC(=O)[*:2])N[*:1]; C14 diacid = O=C(O)CCCCCCCCCCCCC(=O)*; αMeL = CC(C)C[C@](C)(N)C(=O)O; Api = NC1(C(=O)O)CCNCC1; Hexanoyl = CCCCCC(=O)*; AEEA = NCCOCCOCC(=O)O; Aib = CC(C)(N)C(=O)O

Broadly, the EC50 is the concentration needed to bring the measured effect to its halfway point. The low end stands for an effect from little substance, the high end for a need for much substance. In the case of `CCCCCC(=O)N[C@H](C(=O)N[C@@H](CC(C)C)C(=O)N[C@@H](CO)C(=O)N[C@@H](CC(C)C)C(=O)N[C@@H](CC(=O)O)C(=O)N[C@@H](C(=O)N1CCC[C@H]1C(=O)N[C@H](C(=O)N[C@@H](CCCCN)C(=O)N[C@@H](CC(C)C)C(=O)N[C@@H](CCCCNC(=O)CC[C@H](NC(=O)CCCCCCCCCCCCCCC(=O)O)C(=O)O)C(=O)N[C@@H](CCCCN)C(=O)N[C@H](C(=O)N[C@@H](CC(C)C)C(=O)N[C@@H](CC(C)C)C(=O)N[C@@H](CCC(=O)O)C(=O)N[C@@H](CCC(N)=O)C(=O)N[C@@H](CCC(=O)O)C(=O)N[C@@H](CCCCN)C(=O)N[C@@H](CCC(N)=O)C(=O)N[C@@H](CCCCN)C(=O)N[C@@H](CCCCN)C(=O)N[C@@H](CCC(N)=O)C(=O)N[C@@H](CCCNC(=N)N)C(=O)N[C@@H](CCC(=O)O)C(=O)N[C@@H](CCC(N)=O)C(=O)N[C@@H](C)C(=O)N[C@@H](CCC(=O)O)C(=O)N[C@H](C(=O)N[C@@H](CC(N)=O)C(=O)NC(C)(C)C(=O)N[C@@H](CCC(N)=O)C(=O)N[C@H](C(=O)N[C@@H](CC(C)C)C(=O)N[C@@H](C)C(=O)N[C@@H](CCC(N)=O)C(=O)N[C@H](C(N)=O)C(C)C)[C@@H](C)CC)[C@@H](C)O)[C@@H](C)CC)[C@@H](C)CC)C(C)C)C(C)C` [compound 156] (Hexanoyl-VLSLD[dV]PIKLK([γGlu-C16 diacid])KILLEQEKQKKQREQAETN[Aib]QILAQV-NH2), the EC50 in experiment [1] stood at 0.29 nM. For the same molecule, in experiment [2], the “Emax (% I)” value amounted to 8 % I and the EC50 is > 250 nM.

Take `CC[C@H](C)[C@H](NC(C)=O)C(=O)N[C@H](C(=O)N[C@@H](CC(C)C)C(=O)N[C@@H](CO)C(=O)N[C@@H](CC(C)C)C(=O)N[C@@H](CC(=O)O)C(=O)N[C@@H](C(=O)N1CCC[C@H]1C(=O)N[C@H](C(=O)N[C@@H](CCCCN)C(=O)N[C@@H](CC(C)C)C(=O)N[C@@H](CCCCNC(=O)COCCOCCNC(=O)COCCOCCNC(=O)CC[C@H](NC(=O)CCCCCCCCCCCCC(=O)O)C(=O)O)C(=O)N[C@@H](CCCCN)C(=O)N[C@H](C(=O)N[C@@H](CC(C)C)C(=O)N[C@@H](CC(C)C)C(=O)N[C@@H](CCC(=O)O)C(=O)N[C@@H](CCC(N)=O)C(=O)N[C@@H](CCC(=O)O)C(=O)N[C@@H](CCCCN)C(=O)N[C@@H](CCC(N)=O)C(=O)N[C@@H](CCCCN)C(=O)N[C@@H](CCCCN)C(=O)N[C@@H](CCC(N)=O)C(=O)N[C@@H](CCCNC(=N)N)C(=O)N[C@@H](CCC(=O)O)C(=O)N[C@@H](CCC(N)=O)C(=O)N[C@@H](C)C(=O)N[C@@H](CCC(=O)O)C(=O)N[C@H](C(=O)N[C@@H](CC(N)=O)C(=O)NC1(C(=O)N[C@@H](CCC(N)=O)C(=O)N[C@H](C(=O)N[C@@H](CC(C)C)C(=O)N[C@@H](C)C(=O)N[C@@H](CCC(N)=O)C(=O)N[C@H](C(N)=O)C(C)C)[C@@H](C)CC)CCNCC1)[C@@H](C)O)[C@@H](C)CC)[C@@H](C)CC)C(C)C)C(C)C` [compound 172] (Ac-IVLSLD[dV]PIKLK([AEEA-AEEA-γGlu-C14 diacid])KILLEQEKQKKQREQAETN[Api]QILAQV-NH2): the EC50 in experiment [1] worked out at 16.1 nM. Besides, in experiment [2], the “Emax (% I)” value is given as −6 % I and the EC50 is > 250 nM.

Molecule `CC[C@H](C)[C@H](NC(C)=O)C(=O)N[C@H](C(=O)N[C@@H](CC(C)C)C(=O)N[C@@H](CO)C(=O)N[C@@H](CC(C)C)C(=O)N[C@@H](CC(=O)O)C(=O)N[C@@H](C(=O)N1CCC[C@H]1C(=O)N[C@H](C(=O)N[C@@H](CCCCN)C(=O)N[C@@](C)(CC(C)C)C(=O)N[C@@H](CCCCNC(=O)CC[C@H](NC(=O)CCCCCCCCCCCCCCC(=O)O)C(=O)O)C(=O)N[C@@H](CCCCN)C(=O)N[C@H](C(=O)N[C@@H](CC(C)C)C(=O)N[C@@H](CC(C)C)C(=O)N[C@@H](CCC(=O)O)C(=O)N[C@@H](CCC(N)=O)C(=O)N[C@@H](CCC(=O)O)C(=O)N[C@@H](CCCCN)C(=O)N[C@@H](CCC(N)=O)C(=O)N[C@@H](CCCCN)C(=O)N[C@@H](CCCCN)C(=O)N[C@@H](CCC(N)=O)C(=O)N[C@@H](CCCNC(=N)N)C(=O)N[C@@H](CCC(=O)O)C(=O)N[C@@H](CCC(N)=O)C(=O)N[C@@H](C)C(=O)N[C@@H](CCC(=O)O)C(=O)N[C@H](C(=O)N[C@@H](CC(=O)O)C(=O)N[C@@H](CCCCN)C(=O)N[C@@H](CCC(N)=O)C(=O)N[C@H](C(=O)N[C@@H](CC(C)C)C(=O)N[C@@H](C)C(=O)N[C@@H](CCC(N)=O)C(=O)N[C@H](C(N)=O)C(C)C)[C@@H](C)CC)[C@@H](C)O)[C@@H](C)CC)[C@@H](C)CC)C(C)C)C(C)C` [compound 53] (Ac-IVLSLD[dV]PIK[αMeL]K([γGlu-C16 diacid])KILLEQEKQKKQREQAETDKQILAQV-NH2) registered an EC50 in experiment [1] of 8.05 nM. Besides, in experiment [2], the “Emax (% I)” value is on record as 5 % I and the EC50 is > 250 nM.

With `CC[C@H](C)[C@H](NC(C)=O)C(=O)N[C@H](C(=O)N[C@@H](CC(C)C)C(=O)N[C@@H](CO)C(=O)N[C@@H](CC(C)C)C(=O)N[C@@H](CC(=O)O)C(=O)N[C@H](C(=O)N1CCC[C@H]1C(=O)N[C@H](C(=O)N[C@@H](CCCCN)C(=O)N[C@@H](CC(C)C)C(=O)N[C@@H](CCCCNC(=O)COCCOCCNC(=O)COCCOCCNC(=O)CC[C@H](NC(=O)CCCCCCCCCCCCCCCCC(=O)O)C(=O)O)C(=O)N[C@@H](CCCCN)C(=O)N[C@H](C(=O)N[C@@H](CC(C)C)C(=O)N[C@@H](CC(C)C)C(=O)N[C@@H](CCC(=O)O)C(=O)N[C@@H](CCC(N)=O)C(=O)N[C@@H](CCC(=O)O)C(=O)N[C@@H](CCCCN)C(=O)N[C@@H](CCC(N)=O)C(=O)N[C@@H](CCCCN)C(=O)N[C@@H](CCCCN)C(=O)N[C@@H](CCC(N)=O)C(=O)N[C@@H](CCCNC(=N)N)C(=O)N[C@@H](CCC(=O)O)C(=O)N[C@@H](CCC(N)=O)C(=O)N[C@@H](C)C(=O)N[C@@H](CCC(=O)O)C(=O)N[C@H](C(=O)N[C@@H](CC(N)=O)C(=O)NC(C)(C)C(=O)N[C@@H](CCC(N)=O)C(=O)N[C@H](C(=O)N[C@@H](CC(C)C)C(=O)N[C@@H](C)C(=O)N[C@@H](CCC(N)=O)C(=O)N[C@H](C(N)=O)C(C)C)[C@@H](C)CC)[C@@H](C)O)[C@@H](C)CC)[C@@H](C)CC)C(C)C)C(C)C` [compound 97] (Ac-IVLSLDVPIKLK([AEEA-AEEA-γGlu-C18 diacid])KILLEQEKQKKQREQAETN[Aib]QILAQV-NH2), the midpoint of the response in experiment [1], the EC50, lay at 3.17 nM. Moreover, in experiment [2], the “Emax (% I)” value is 0 % I and the EC50 was > 250 nM.

The molecule `CC[C@H](C)[C@H](NC(C)=O)C(=O)N[C@H](C(=O)N[C@@H](CC(C)C)C(=O)N[C@@H](CO)C(=O)N[C@@H](CC(C)C)C(=O)N[C@@H](CC(=O)O)C(=O)N[C@@H](C(=O)N1CCC[C@H]1C(=O)N[C@H](C(=O)N[C@@H](CCCCN)C(=O)N[C@@H](CC(C)C)C(=O)N[C@@H](CCCCNC(=O)COCCOCCNC(=O)CC[C@H](NC(=O)CC[C@H](NC(=O)CCCCCCCCCCCCCCCCC(=O)O)C(=O)O)C(=O)O)C(=O)N[C@@H](CCCCN)C(=O)N[C@H](C(=O)N[C@@H](CC(C)C)C(=O)N[C@@H](CC(C)C)C(=O)N[C@@H](CCC(=O)O)C(=O)N[C@@H](CCC(N)=O)C(=O)N[C@@H](CCC(=O)O)C(=O)N[C@@H](CCCCN)C(=O)N[C@@H](CCC(N)=O)C(=O)N[C@@H](CCCCN)C(=O)N[C@@H](CCCCN)C(=O)N[C@@H](CCC(N)=O)C(=O)N[C@@H](CCCNC(=N)N)C(=O)N[C@@H](CCC(=O)O)C(=O)N[C@@H](CCC(N)=O)C(=O)N[C@@H](C)C(=O)N[C@@H](CCC(=O)O)C(=O)N[C@H](C(=O)N[C@@H](CC(N)=O)C(=O)NC(C)(C)C(=O)N[C@@H](CCC(N)=O)C(=O)N[C@H](C(=O)N[C@@H](CC(C)C)C(=O)N[C@@H](C)C(=O)N[C@@H](CCC(N)=O)C(=O)N[C@H](C(N)=O)C(C)C)[C@@H](C)CC)[C@@H](C)O)[C@@H](C)CC)[C@@H](C)CC)C(C)C)C(C)C` [compound 205] (Ac-IVLSLD[dV]PIKLK([AEEA-γGlu-γGlu-C18 diacid])KILLEQEKQKKQREQAETN[Aib]QILAQV-NH2) returned an EC50 in experiment [1] of 1.43 nM. Further, in experiment [2], the “Emax (% I)” value amounted to 1 % I and the EC50 is > 250 nM.

The values above are taken from patent US20260001928A1 (CORTERIA PHARMACEUTICALS, priority 2022, published 2026).
